Measurements from patent US8946244B2, “2′-fluoro-6′methylene carbocyclic nucleosides and methods of treating viral infections” (University of Georgia Research Foundation, Inc., priority 2009, dated 2015).

Tests used:
[1] = system: lamivudine-resistant mutants including rtM204V/I±rtL180M; details: literature ref. 50; cited from earlier work
[2] = system: HBV; experiment: standard HBV assay (laboratory of Dr. Brent Korba); assay type: cell-based, Hepatitis B virus
Description: (§1) Drug susceptibility assays were performed as previously described. Cytotoxicity assays in PBM, CEM and Vero cells were conducted as previously described. Two compounds were used for testing, the first, an adenine nucleoside analog which contained hydroxyl groups at R^1 and R^1a on the sugar portion of the molecule (compound 15/18) and the second, a prodrug nucleoside based upon compound 15/18 which contained a phosphoamidate group on R^1 (R^1a was H) containing a phenyl group as R^6 and B′ was an amino acid group derived from alanine, where R^8 was methyl and R″ was a methyl group, forming a methyl ester. These compounds were tested in a standard HBV assay in the laboratory of Dr. Brent Korba.

[3] = system: wild-type HBV; experiment: intracellular HBV DNA replication assay, wild-type HBV; assay type: cell-based, Hepatitis B virus
Description: as §1

[4] = system: HBV rtL180M; experiment: intracellular HBV DNA replication assay, rtL180M mutant; assay type: cell-based, Hepatitis B virus
Description: as §1

[5] = system: HBV double mutant rtL180M/rtM204V; experiment: intracellular HBV DNA replication assay, double mutant; assay type: cell-based; details: Hepatitis B virus
Description: as §1

[6] = system: HBV rtA181T and rtN236T; details: cited from earlier work

Q: Which “fold loss of activity against lamivudine-resistant mutants” value [1] does the source give for `C=C1[C@H](CO)[C@@H](O)C[C@@H]1n1cnc2c(=O)[nH]c(N)nc21` [entecavir] here?
A: 8 fold

Q: For `C=C1C(COP(=O)(N[C@@H](C)C(=O)OC)Oc2ccccc2)C(O)C(F)C1n1cnc2c(N)ncnc21` (stereo partly drawn) [Test Number 2, 2′-Deoxy-2′-fluoro-3′-hydroxy-4′-(hydroxymethyl)-5′-methylene-carbocyclic Adenosine (2′-FMCA) Monophosphate prodrug], which “times more active than the compound where both R1 and R1a are H” value [2] is on record?
A: more than 10 times

Q: With `C=C1[C@@H](n2cnc3c(N)ncnc32)[C@@H](F)[C@H](O)[C@H]1CO` (hydrate or solvate) [Compound 15, (+)-(1R,2R,3R,5R)-3-(6-amino-9H-9-purinyl)-2-fluoro-5-(hydroxymethyl)-4-methylenecyclopentan-1-ol] as the compound, how does the melting point read?
A: 215 to 218 °C (dec.)

Q: Which “fold more potent than adefovir (EC90)” value ([3]; wild-type HBV, EC90) does the source give for `C=C1[C@@H](n2cnc3c(N)ncnc32)[C@@H](F)[C@H](O)[C@H]1CO` [Compound 15, (+)-(1R,2R,3R,5R)-3-(6-amino-9H-9-purinyl)-2-fluoro-5-(hydroxymethyl)-4-methylenecyclopentan-1-ol] here?
A: 1.5 fold

Q: And the “fold increased antiviral activity in the EC90 value versus lamivudine” value [4]?
A: 4.3 fold

Q: For `Nc1ncnc2c1ncn2CCOCP(=O)(O)O` [adefovir], which EC90 ([3]; Hepatitis B virus, HBV-WT, concentration required to inhibit 90% of HBV DNA, read-out: EC90 against wild-type HBV) is on record?
A: 7.1 µM

Q: What about the EC50 ([5]; read-out: EC50 against double mutant rtL180M/rtM204V) of the same compound?
A: 2200 nM

Q: And the EC90 ([5]; read-out: EC90 against double mutant rtL180M/rtM204V)?
A: 8.5 µM

Q: And the “increase in median effective concentration” value [6]?
A: two-fold to nine-fold
